Measurements from US20250313535A1, “ALPHA 4 BETA 7 INTEGRIN MODULATORS AND USES THEREOF” (DICE MOLECULES SV, INC., priority 2022, published 2025).
Read-outs that look alike come from different tables or passages of the source.

Key:
Assay type in all cases: cell-based
α4β7 integrin [1] = target: T1, α4β7 integrin (Homo sapiens (Human), UniProt P13612+P26010); assay: Integrin Adhesion Assay: Protocol 4 (MAdCAM-coated plate, RPMI-8866 cells with stable LOF mutation of the ITGB1 gene)
Procedure, shortened: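 RPMI-8866 cells with CRISPR/Cas9 knockout of ITGB1 (2×10^6/mL) were added to MAdCAM-coated wells with compound (1% DMSO) in HEPES/NaCl buffer with 1 mM MnCl2, 0.1 mM CaCl2 and 1% BSA, then incubated 1 h at 37 °C. After four washes, adherent cells were quantified by CellTiter-Glo luminescence. Percent inhibition versus DMSO and control compound was fitted to 4-parameter curves.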

α4β1 integrin = α4β1 integrin (Homo sapiens (Human), UniProt P05556+P13612); assay: Integrin Adhesion Assay: Protocol 5 (VCAM-coated plate, RPMI-8866 cells with stable LOF mutation of the ITGB7 gene)
Chain of α4β1 integrin (P13612 34-1032): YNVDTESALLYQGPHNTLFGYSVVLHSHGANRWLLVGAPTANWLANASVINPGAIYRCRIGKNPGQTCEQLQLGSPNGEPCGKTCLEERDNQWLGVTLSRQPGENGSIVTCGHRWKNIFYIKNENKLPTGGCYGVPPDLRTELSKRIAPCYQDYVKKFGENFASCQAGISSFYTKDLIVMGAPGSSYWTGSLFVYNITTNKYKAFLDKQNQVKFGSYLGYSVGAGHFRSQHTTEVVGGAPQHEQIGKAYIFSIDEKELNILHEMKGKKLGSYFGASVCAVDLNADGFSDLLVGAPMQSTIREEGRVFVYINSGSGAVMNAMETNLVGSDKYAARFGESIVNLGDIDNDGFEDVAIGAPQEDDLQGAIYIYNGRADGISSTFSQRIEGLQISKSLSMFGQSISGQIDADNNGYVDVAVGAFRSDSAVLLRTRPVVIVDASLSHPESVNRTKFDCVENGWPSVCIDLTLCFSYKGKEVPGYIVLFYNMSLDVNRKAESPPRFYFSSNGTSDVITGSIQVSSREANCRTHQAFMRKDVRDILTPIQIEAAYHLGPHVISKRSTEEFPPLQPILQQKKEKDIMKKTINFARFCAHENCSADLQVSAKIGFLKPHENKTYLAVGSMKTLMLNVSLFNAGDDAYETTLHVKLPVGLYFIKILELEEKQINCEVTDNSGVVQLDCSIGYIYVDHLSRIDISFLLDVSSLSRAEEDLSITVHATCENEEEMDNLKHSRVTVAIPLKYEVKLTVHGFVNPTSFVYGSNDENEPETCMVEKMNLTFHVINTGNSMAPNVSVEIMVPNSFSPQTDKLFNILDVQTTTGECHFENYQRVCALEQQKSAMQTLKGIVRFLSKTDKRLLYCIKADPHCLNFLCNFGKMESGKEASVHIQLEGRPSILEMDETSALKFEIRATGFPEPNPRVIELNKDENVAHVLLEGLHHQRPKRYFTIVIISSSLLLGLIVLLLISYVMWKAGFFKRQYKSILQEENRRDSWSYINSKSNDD
Chain of α4β1 integrin (P05556 21-798): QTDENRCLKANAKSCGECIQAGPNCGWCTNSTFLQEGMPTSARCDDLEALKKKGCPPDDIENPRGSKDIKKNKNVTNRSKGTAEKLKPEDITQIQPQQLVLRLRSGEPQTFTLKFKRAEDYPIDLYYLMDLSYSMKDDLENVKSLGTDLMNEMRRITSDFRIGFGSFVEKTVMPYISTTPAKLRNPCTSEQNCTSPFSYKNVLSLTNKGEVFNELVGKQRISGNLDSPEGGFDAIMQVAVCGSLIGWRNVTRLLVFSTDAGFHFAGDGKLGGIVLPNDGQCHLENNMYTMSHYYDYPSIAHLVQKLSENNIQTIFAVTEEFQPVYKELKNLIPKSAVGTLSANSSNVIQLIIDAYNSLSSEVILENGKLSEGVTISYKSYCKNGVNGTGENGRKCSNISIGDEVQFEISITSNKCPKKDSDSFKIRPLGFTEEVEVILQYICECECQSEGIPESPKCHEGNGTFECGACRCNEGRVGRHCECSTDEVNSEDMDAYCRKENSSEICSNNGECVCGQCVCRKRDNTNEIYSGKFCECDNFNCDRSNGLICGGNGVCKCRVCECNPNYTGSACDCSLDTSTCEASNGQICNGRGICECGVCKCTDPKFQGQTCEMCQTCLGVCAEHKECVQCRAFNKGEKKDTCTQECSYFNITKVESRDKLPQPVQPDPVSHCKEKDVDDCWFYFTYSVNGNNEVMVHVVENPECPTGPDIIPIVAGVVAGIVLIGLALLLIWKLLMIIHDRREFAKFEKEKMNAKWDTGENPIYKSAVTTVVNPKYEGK
Procedure, shortened: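 RPMI-8866 B cells with CRISPR/Cas9 ITGB7 knockout (clonal, verified by flow cytometry) adhered to VCAM-coated wells for 1 h at 37° C in HEPES/NaCl buffer with 1 mM MnCl2, 0.1 mM CaCl2, 1% BSA, 1% DMSO. Bound cells quantified by CellTiter-Glo luminescence after washing; % inhibition versus DMSO and control, 4-parameter fit.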

α4β7 integrin [2] = target: T1, α4β7 integrin; assay: Integrin Adhesion Assay: Protocol 1 (MAdCAM-coated plate, RPMI-8866 cells, CellTiter GLO readout)
Procedure, shortened: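 RPMI-8866 cells (2×10^6 per mL) added with compounds (1% DMSO) to MAdCAM-coated wells blocked in HEPES/NaCl buffer with 1 mM MnCl2, 0.1 mM CaCl2, 1% BSA; 1 h at 37° C, 5% CO2. After four washes, bound cells read by CellTiter GLO luminescence; % inhibition vs DMSO and control wells, 4-parameter fit.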

[3] = RPMI-8866 cells with stable LOF mutation of the ITGB1 gene, read-out: Mean IC50 α4β7 KO^a
[4] = RPMI-8866 cells with stable LOF mutation of the ITGB7 gene, read-out: Mean IC50 α4β1 KO^b
[5] = Protocol 4, RPMI-8866 cells with LOF mutation of ITGB1, MAdCAM, read-out: Mean IC50 α4β7 KO
[6] = Protocol 5, RPMI-8866 cells with LOF mutation of ITGB7, VCAM, read-out: Mean IC50 α4β1 KO

T1 sequence (P13612 34-1032): as the sequence (P13612 34-1032) above
T1 sequence (P26010 20-798): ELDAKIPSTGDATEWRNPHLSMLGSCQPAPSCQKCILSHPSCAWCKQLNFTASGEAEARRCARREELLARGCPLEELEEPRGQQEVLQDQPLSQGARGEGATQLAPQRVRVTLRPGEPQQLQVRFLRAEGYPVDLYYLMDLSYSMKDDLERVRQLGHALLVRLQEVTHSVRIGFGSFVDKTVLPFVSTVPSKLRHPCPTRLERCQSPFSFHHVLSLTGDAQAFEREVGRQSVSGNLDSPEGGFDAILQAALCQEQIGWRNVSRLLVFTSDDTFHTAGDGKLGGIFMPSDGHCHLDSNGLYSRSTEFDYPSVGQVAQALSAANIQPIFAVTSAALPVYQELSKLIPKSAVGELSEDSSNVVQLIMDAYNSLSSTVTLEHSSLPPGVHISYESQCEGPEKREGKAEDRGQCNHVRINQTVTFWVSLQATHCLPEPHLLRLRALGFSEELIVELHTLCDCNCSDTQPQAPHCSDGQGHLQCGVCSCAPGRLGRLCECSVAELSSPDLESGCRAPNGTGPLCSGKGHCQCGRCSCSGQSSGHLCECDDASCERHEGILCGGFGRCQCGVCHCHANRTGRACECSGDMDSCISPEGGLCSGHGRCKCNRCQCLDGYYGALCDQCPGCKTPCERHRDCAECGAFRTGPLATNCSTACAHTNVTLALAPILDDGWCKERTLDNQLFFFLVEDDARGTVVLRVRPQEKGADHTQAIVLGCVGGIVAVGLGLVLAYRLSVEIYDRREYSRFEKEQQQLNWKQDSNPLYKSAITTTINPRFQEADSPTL

Row | IC50 (α4β7 integrin [1]; [3]) | IC50 (α4β1 integrin; [4]) | IC50 (α4β7 integrin [2]) | IC50 (α4β7 integrin [1]; [5]) | IC50 (α4β1 integrin; [6]) | IC50 (α4β7 integrin [2]; protocol not given) | Compound
1 | 10 to 100 nM | > 1000 nM | 10 to 100 nM | – | – | – | Cc1c(F)ccc(F)c1C(=O)N[C@@H](Cc1cccc2c(-c3c(C(F)(F)F)c4ccccc4n(C)c3=O)cccc12)C(=O)O [Compound 444]
2 | 100 to 1000 nM | – | 100 to 1000 nM | – | – | – | Cn1c(=O)c(-c2cccc3c(C[C@H](NC(=O)C45CC(NCC(F)(F)F)(C4)C5)C(=O)O)cccc23)c(C(F)(F)F)c2ccccc21 [Compound 447]
3 | < 10 nM | 100 to 1000 nM | < 10 nM | – | – | – | CCOCc1cc(OC)c(-c2cccc3c(C[C@H](NC(=O)c4c(C)cccc4F)C(=O)O)cccc23)c(OC)c1 [Compound 448]
4 | 100 to 1000 nM | > 1000 nM | 100 to 1000 nM | – | – | – | Cc1cccc(F)c1C(=O)N[C@@H](Cc1cccc2c(-c3c(C(F)(F)F)c4cc(N(C)C)ccc4n(C)c3=O)cccc12)C(=O)O [Compound 449]
5 | < 10 nM | 100 to 1000 nM | < 10 nM | – | – | – | COc1ccc(CN(C)C)c(OC)c1-c1cccc2c(C[C@H](NC(=O)c3c(C)cccc3F)C(=O)O)cccc12 [Compound 450]
6 | < 10 nM | 100 to 1000 nM | < 10 nM | – | – | – | COc1ccc(CN(C)C)c(OC)c1-c1cccc2c(C[C@H](NC(=O)c3c(F)cccc3CN3CCC(F)(F)CC3)C(=O)O)cccc12 [Compound 452]
7 | 10 to 100 nM | > 1000 nM | 10 to 100 nM | – | – | – | CN(C)c1ccc2c(c1)c(C(F)(F)F)c(-c1cccc3c(C[C@H](NC(=O)C4(C(F)(F)F)CCN(CC(F)(F)F)CC4)C(=O)O)cccc13)c(=O)n2C [Compound 454]
8 | 10 to 100 nM | > 1000 nM | 10 to 100 nM | – | – | – | Cn1c(=O)c(-c2cccc3c(C[C@H](NC(=O)c4c(F)cccc4CN4CCC(F)(F)C4)C(=O)O)cccc23)c(C(F)(F)F)c2ccccc21 [Compound 456]
9 | 100 to 1000 nM | – | 100 to 1000 nM | – | – | – | Cn1c(=O)c(-c2cccc3c(C[C@H](NC(=O)C45CC(N6CCOCC6)(C4)C5)C(=O)O)cccc23)c(C(F)(F)F)c2ccccc21 [Compound 459]
10 | 10 to 100 nM | > 1000 nM | 10 to 100 nM | – | – | – | Cc1cccc(F)c1C(=O)N[C@@H](Cc1cccc2c(-c3c(C(F)(F)F)ccn(C)c3=O)cccc12)C(=O)O [Compound 460]
11 | 100 to 1000 nM | – | 100 to 1000 nM | – | – | – | Cn1c(=O)c(-c2cccc3c(C[C@H](NC(=O)c4c(F)ccc(C(F)(F)F)c4F)C(=O)O)cccc23)c(C(F)(F)F)c2ccccc21 [Compound 461]
12 | 100 to 1000 nM | – | 100 to 1000 nM | – | – | – | Cn1c(=O)c(-c2cccc3c(C[C@H](NC(=O)c4c(F)cc(N5CCC(CO)C5)cc4F)C(=O)O)cccc23)c(C(F)(F)F)c2ccccc21 (stereo partly shown) [Compound 462]
13 | – | – | – | < 10 nM | 100 to 1000 nM | < 10 nM | CN(C)Cc1ccc2c(c1)c(C(F)(F)F)c(-c1cccc3c(C[C@H](NC(=O)c4c(F)cccc4F)C(=O)O)cccc13)c(=O)n2C [Compound 697]
14 | – | – | – | 10 to 100 nM | 100 to 1000 nM | < 10 nM | CN(C)Cc1ccc2c(c1)c(C(F)(F)F)c(-c1cccc3c(C[C@H](NC(=O)c4c(F)cc(C(F)(F)F)cc4F)C(=O)O)cccc13)c(=O)n2C [Compound 699]
15 | – | – | – | > 1000 nM | > 1000 nM | 100 to 1000 nM | CN(C)c1ccc2c(C(F)(F)F)c(-c3cccc4c(C[C@H](NC(=O)c5c(F)cccc5F)C(=O)O)cccc34)c(=O)n(C)c2c1 [Compound 719]
16 | – | – | – | 10 to 100 nM | > 1000 nM | 10 to 100 nM | O=C(N[C@@H](Cc1cccc2c(-n3cccc(C(F)(F)F)c3=O)cccc12)C(=O)O)c1c(F)cccc1F [Compound 1054]
17 | – | – | – | > 1000 nM | – | 100 to 1000 nM | Cc1cccc(C)c1-c1cc(C(=O)N[C@@H](Cc2cccc3c(-n4c(=O)cc(CCN5CC(F)C5)n(C)c4=O)cccc23)C(=O)O)c(F)c(C(F)(F)F)c1 [Compound 1056]
